# Measured values from patent US20260060947A1 (INSTITUT PASTEUR DE MONTEVIDEO, priority 2019, published 2026).
# “Also recorded” adds a separate entry of the source.
# Columns and labels:
# NF-κB-p65 = test: LPS-induced NF-κB-p65 nuclear translocation in BV2 cells (immunocytochemistry); format: cell-based, murine; conditions: BANA 10, 20, 30 μM, BA 30 μM or DMF for 3 hrs before LPS 100 ng/ml
# Procedure: The effect of BANA on nuclear translocation of NF-κB was studied by immunocytochemistry using murine microglia cell line BV2.
# Cells were then treated with BANA (10, 20 and 30 μM) or B.A (30 μM) for 3 hrs. After treatment, cells were stimulated with LPS (100 ng/ml) for 30 minutes. Then, cells were washed and fixed with PFA 4% for 20 minutes at 4° C. and washed with PBS. Immunocytochemistry was performed as follows: cells were permeabilized using 0.5% Triton in PBS for 15 minutes, and then blocked using 5% of BSA for 1 h at room temperature. Rabbit anti-NF-κB-p65 (ab16502, 1/200) and mouse anti-CD11b (BD550219, 1/100) were incubated overnight at 4° C. After that, primary antibodies were removed, washed with PBS 3 times for 10 minutes, and Alexa-fluor-conjugated goat anti-rabbit or goat anti-mouse antibodies (1:1000) were incubated for 2 h at room temperature. After secondary antibodies were removed, cells were covered in glycerol mounting medium with 1/2000 DAPI staining. Cells were analyzed by confocal microscopy using a confocal ZEISS LSM 800. NF-κB-p65+ nuclei were counted and ratio of DAPI to NF-κB-p65 labeling was compared among groups. Data were analyzed using analyzing tools of ImageJ and GraphPad Prism 7 software.
# NF-κB = test: LPS-induced NF-κB-dependent gene expression in THP-1 cells (qPCR); format: cell-based, Human; conditions: 30 μM for 2 hs, then LPS 100 ng/mL
# Procedure: The effect of BANA or BA over NF-κB-dependent gene expression was studied by qPCR using THP-1 cells. THP-1 cells were differentiated into macrophages and treated with BANA (30 μM) or BA (30 μM) for 2 hs, followed by stimulation with LPS (100 ng/mL, for 3-4 h).
# TNFα, CCL2, IL6 and IL-1β expression was analyzed by RT-PCR. Real-time PCR analysis was conducted as follows: Total mRNA was extracted from THP-1 cells to quantify TNFα, IL-6 and MCP-1-fold change gene expression over control (β-actin) by qPCR assay. Purified RNA was transcripted to cDNA using Superscript II Reverse Transcriptase with Oligo (dT). The cDNA for real-time PCR was obtained with a Piko 24 Thermal Cycler (Thermo Scientific). mRNA expression analysis was calculated using the ddCt method with β-Actin as the house keeping gene. SYBR Green was used as DNA binding dye and the qRT-PCR was done in an Eco Illumina thermocycler. Human primers sequences were used for THP-1 cells: […]
# SOD1^G93A rats [1] = test: Post-paralysis survival trial in SOD1^G93A rats; format: in vivo, rat
# Procedure: Only female transgenic rats showing weakness and gait alterations in the […] as the first clinical sign were selected for BANA treatment studies. Rats were divided randomly into BANA or vehicle-treated groups. BANA was freshly prepared in buffer phosphate (PB), and administrated daily at a dose of 100 mg/kg using a curved stainless steel gavage needle with 3-mm ball tip. Rats were treated from day-1 post-paralysis for 15 days or until end-stage when they were euthanized.
# All rats were weighed and evaluated for motor activity daily. Disease onset was determined for each animal when pronounced muscle atrophy accompanied by abnormal gait, typically expressed as subtle limping or dragging of one hind limb. End-stage was defined by a lack of righting reflexes or the inability to reach food and water.
# Survival curves were compared by Kaplan-Meier analysis with the Log-rank test using GraphPad Prism 7 software.
# To test whether systemic treatment with BANA could prolong the survival of SOD1^G93A rats, a trial was conducted in which rats were orally treated with BANA (100 mg/kg/day) or vehicle, starting immediately after paralysis onset of one hind limb until the end-stage of the disease.
# IL-1β = IL-1β in peritoneum and plasma of LPS-injected mice (ELISA); format: in vivo; conditions: 50 mg/kg IP 1 h before LPS 10 mg/kg, measured 3 h later, compared to vehicle and BA
# Procedure: BANA (50 mg/kg), BA (50 mg/kg) or vehicle, were intraperitoneally (IP) injected 1 h before LPS intraperitoneal administration (10 mg/kg). 3 h later, IL-1β levels were measured in the peritoneum and plasma by ELISA.
# In turn, BANA was able to reduce IL-1β concentration in plasma and peritoneum of mice intraperitoneally injected with LPS respect to controls (FIGS. 8A-1 and 8A-2). BANA (50 mg/kg), BA (50 mg/kg) or vehicle, were intraperitoneally (IP) injected 1 h before LPS intraperitoneal administration (10 mg/kg). 3 h later, IL-1β levels were measured in the peritoneum and plasma by ELISA. […] All data are expressed as mean±SEM; data were analyzed by Ordinary one-way ANOVA followed by Tukey's multiple comparisons test, ***p=0.0002 ****p<0,0001. n=3 animals per condition.
# SOD1^G93A rats [2] = test: Neuromuscular junction innervation analysis in whole mounted EDL muscle; format: in vivo, rat; conditions: 100 mg/kg/day post-paralysis; vs vehicle
# Procedure: Extensor digitorium longus (EDL) muscles from the NonTg and SOD1^G93A hind limbs were dissected. Then, tissues were blocked for 2 h at room temperature (BSA 5% v/v, Triton X-100 0.8% v/v in PBS pH=7.4), incubated with primary antibodies or fluorescent probes at 4° C. overnight: axon and post-synaptic plates were carried out using 1:1000 rabbit anti-heavy chain neurofilament-Alexa Fluor 555 (Millipore, #MAB5256A5) and fluorescently labeled a-bungarotoxin-FITC [αBTX, (Thermo Fisher Scientific, B13422)], axon presynaptic terminals were labeled with 1:300 rabbit anti-synaptophysin-Alexa Fluor 555 (Abcam, #ab206870). After washing 4 times with PBS, whole-mount muscles were mounted using DPX. Structural changes of the neuromuscular junction were scored using maximum-intensity projections of images acquired from whole-mounted muscles. Neuromuscular junction innervation analysis was performed taking into consideration those postsynaptic motor endplates occupied by a presynaptic axon terminal, where full innervation was defined as at least 80% of overlapping between pre- and postsynaptic. An average of 100 neuromuscular junctions per animal was analyzed using the ImageJ software.
# [3] = oral 100 mg/kg/day from paralysis onset until end-stage
compound,measurement,setting,value
"O=C(O)c1ccc(/C=C/[N+](=O)[O-])cc1 [BANA, (E)-4-(2-nitrovinyl) benzoic acid]",LPS-induced NF-κB-p65 nuclear translocation,NF-κB-p65,potently prevented; also recorded: inhibits
same,"levels of mRNA coding for TNFα, MCP-1 and IL-6",NF-κB,potently prevented; also recorded: abrogated
same,increase probability of survival compared with vehicle-treated rats,SOD1^G93A rats [1]; [3],32%
same,mean survival time,SOD1^G93A rats [1]; [3],evidence of a survival benefit
same,post-paralysis survival prolonged respect to vehicle,"SOD1^G93A rats [1]; oral, starting after disease onset",32%
same,IL-1β concentration in plasma,IL-1β,significantly reduces
same,IL-1β concentration in the peritoneum,IL-1β,significantly reduces
same,motor endplate denervation in the EDL muscle,SOD1^G93A rats [2],significantly reduced
